Measured values from EP0043274A2, “Antithrombotic treatment” (priority 1980, dated 1982).

How the values were obtained:
F XI = biological target: T1, F XI (Homo sapiens, UniProt P03951); experiment: Coagulation factor assay (Biggs): Factor XI; format: biochemical; settings: in vitro
T1 construct: from tissue; host or cells: human plasma
Description: (§1) The effect of U.S.P. grade sodium bisulfite on blood coagulation factors is evaluated by standard procedures (Biggs) and the results are shown in Table III below.
(§2) References for PT, PTT, and assays of all the coagulation factors can be found in a standard textbook, entitled "Human Blood Coagulation, Haemostasis and Thrombosis", edited by Rosemary Biggs, published by Blackwell Scientific Publications, Oxford, England (2nd edition), pages 670-705, 1976.

F XII = biological target: T2, F XII (Homo sapiens, UniProt P00748); experiment: Coagulation factor assay (Biggs): Factor XII; format: biochemical; settings: in vitro
T2 construct: from tissue; host or cells: human plasma
T2 sequence (P00748 20-615): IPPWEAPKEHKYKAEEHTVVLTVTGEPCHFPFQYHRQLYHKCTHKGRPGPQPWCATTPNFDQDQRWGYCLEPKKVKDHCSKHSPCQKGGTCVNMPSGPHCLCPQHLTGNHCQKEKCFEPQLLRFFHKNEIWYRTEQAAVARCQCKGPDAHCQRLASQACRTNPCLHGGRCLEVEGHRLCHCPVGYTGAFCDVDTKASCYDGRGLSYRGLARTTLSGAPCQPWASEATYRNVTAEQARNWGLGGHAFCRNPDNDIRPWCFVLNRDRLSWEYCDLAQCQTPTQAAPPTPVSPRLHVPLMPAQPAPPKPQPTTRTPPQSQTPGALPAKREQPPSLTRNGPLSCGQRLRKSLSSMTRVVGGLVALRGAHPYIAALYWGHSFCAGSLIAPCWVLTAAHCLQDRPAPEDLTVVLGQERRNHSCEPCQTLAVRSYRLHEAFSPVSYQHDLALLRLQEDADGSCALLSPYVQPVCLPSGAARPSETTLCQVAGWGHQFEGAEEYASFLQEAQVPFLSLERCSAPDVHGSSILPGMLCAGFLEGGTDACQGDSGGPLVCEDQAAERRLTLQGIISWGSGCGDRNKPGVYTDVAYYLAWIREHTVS
Description: as §1, §2

rabbit plasma = experiment: Blood coagulation tests (PT, PTT, coagulation factors) in vitro; format: biochemical; settings: rabbit plasma in vitro, 0.5 mg/ml
Excerpt: The alkali metalbisulfites, sodium and potassium, and ammonium bisulfite are found to prolong PT and PTT in a dose-related fashion.
The Solution I is found to prolong PT and PTT in a dose related fashion. […] The agent is active in inhibiting various coagulation factors, including factors VII, IX, X, XI, and XII.

F X = biological target: T3, F X (Homo sapiens, UniProt P00742); experiment: Coagulation factor assay (Biggs): Factor X; format: biochemical; settings: in vitro
T3 construct: from tissue; host or cells: human plasma
T3 sequence (P00742 41-488): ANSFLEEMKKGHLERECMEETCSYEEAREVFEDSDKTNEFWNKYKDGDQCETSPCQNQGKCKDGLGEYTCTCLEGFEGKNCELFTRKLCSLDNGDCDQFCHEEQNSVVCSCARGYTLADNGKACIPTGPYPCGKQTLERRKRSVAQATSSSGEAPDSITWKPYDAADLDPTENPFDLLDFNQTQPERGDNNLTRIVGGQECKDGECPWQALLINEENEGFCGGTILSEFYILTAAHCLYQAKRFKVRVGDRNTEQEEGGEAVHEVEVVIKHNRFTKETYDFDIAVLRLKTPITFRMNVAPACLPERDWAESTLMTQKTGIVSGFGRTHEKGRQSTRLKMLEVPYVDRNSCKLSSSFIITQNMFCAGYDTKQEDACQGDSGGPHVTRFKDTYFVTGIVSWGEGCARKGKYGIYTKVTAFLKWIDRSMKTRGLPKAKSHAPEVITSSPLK
Description: as §1, §2

human plasma [1] = format: biochemical
[2] = test system: thrombus formation in the jugular vein; experiment: I 125 fibrinogen technique, damaged jugular vein (venous thrombosis), continuous infusion; format: in vivo, rabbits; settings: continuous infusion for five hours
F IX = biological target: T4, F IX (Homo sapiens, UniProt P00740); experiment: Coagulation factor assay (Biggs): Factor IX; format: biochemical
T4 construct: from tissue; host or cells: human plasma
T4 sequence (P00740 47-461): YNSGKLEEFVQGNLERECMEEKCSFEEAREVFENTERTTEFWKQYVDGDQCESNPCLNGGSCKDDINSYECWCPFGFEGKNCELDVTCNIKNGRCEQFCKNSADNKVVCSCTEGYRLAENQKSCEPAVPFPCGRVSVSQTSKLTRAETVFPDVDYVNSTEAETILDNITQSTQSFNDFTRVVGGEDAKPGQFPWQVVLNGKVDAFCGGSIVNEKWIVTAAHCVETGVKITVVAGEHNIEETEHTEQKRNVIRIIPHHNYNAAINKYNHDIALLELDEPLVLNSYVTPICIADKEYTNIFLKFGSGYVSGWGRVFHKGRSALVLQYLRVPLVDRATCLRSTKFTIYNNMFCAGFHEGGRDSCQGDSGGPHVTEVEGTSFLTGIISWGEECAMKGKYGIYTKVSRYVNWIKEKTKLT
Description: as §1, §2

human plasma [3] = format: biochemical; remark: listed apart in the source
F VII = biological target: T5, F VII (Homo sapiens, UniProt P08709); experiment: Coagulation factor assay (Biggs): Factor VII; format: biochemical; settings: in vitro
T5 construct: from tissue; host or cells: human plasma
T5 sequence (P08709 61-466): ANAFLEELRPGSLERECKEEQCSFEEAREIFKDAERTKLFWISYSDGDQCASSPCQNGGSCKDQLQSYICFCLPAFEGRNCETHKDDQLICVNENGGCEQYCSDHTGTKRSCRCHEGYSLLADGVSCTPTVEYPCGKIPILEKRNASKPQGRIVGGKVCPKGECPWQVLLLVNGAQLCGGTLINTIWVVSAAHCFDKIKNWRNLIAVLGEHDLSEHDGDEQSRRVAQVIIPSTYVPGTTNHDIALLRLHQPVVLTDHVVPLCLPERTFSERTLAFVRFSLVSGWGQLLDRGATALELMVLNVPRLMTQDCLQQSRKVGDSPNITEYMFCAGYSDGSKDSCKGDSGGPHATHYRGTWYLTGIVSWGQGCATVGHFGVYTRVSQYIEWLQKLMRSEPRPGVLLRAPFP
Description: as §1, §2

T1 sequence (P03951 19-625): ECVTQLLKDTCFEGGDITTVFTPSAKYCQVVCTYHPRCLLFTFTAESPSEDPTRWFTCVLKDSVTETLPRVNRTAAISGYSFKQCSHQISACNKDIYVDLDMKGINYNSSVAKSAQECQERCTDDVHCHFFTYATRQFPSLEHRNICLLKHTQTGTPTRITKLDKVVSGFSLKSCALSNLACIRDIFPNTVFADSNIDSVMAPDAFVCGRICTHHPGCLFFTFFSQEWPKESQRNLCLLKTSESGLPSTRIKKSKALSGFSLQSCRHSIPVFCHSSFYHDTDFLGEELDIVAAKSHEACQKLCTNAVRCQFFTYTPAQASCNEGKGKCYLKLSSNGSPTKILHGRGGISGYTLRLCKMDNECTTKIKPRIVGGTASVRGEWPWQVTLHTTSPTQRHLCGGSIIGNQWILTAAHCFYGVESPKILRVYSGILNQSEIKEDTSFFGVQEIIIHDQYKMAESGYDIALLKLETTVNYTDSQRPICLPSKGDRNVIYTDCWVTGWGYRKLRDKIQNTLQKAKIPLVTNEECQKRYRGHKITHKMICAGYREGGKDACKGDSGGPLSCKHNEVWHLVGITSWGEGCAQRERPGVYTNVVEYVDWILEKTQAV

CCN(CC)CC.O=S(O)O [TRIETHYL AMINE BISULFITE, triethyl amine bisulfite]
inhibition of coagulation factor XI (F XI): active | inhibition of coagulation factor XII (F XII): active | PT and PTT (effect in words) (rabbit plasma): significantly prolong | inhibition of coagulation factor X (F X): active | MEAN LSD (PTT) (human plasma [1]): 73.1 ± 8.3 s | PTT (effect in words) (human plasma [1]): significantly prolong | PTT(Sec) […]. 1 (human plasma [1]): 24.7 s | PTT(Sec) […]. 2 (human plasma [1]): 86.3 s | PTT(Sec) […]. 3 (human plasma [1]): 64.2 s | PTT(Sec) […]. 4 (human plasma [1]): 71.2 s | PTT(Sec) […].5 (human plasma [1]): 68.9 s | radioactivity (I 125 fibrinogen) in damaged jugular vein of saline control rabbit relative to treated rabbit [2]: seven times | thrombus formation in the jugular vein (conclusion in words) [2]: definite positive antithrombotic effect | inhibition of coagulation factor IX (F IX; in vitro): active | Factor IX (%) (F IX; single experiment, control 50): 14% | MEAN LSD (PT) (human plasma [3]): 21.3 ± 3.0 s | PT (effect in words) (human plasma [3]): significantly prolong | PT(Sec) […]. 1 (human plasma [3]): 23.3 s | PT(Sec) […]. 2 (human plasma [3]): 25.3 s | PT(Sec) […]. 3 (human plasma [3]): 18.5 s | PT(Sec) […]. 4 (human plasma [3]): 18.9 s | PT(Sec) […].5 (human plasma [3]): 20.4 s | inhibition of coagulation factor VII (F VII): active
